Activity calls are given as the source filed them. No cut-off for these calls is given here.
Columns and labels:
Mus musculus [1] = assay: Antinociceptive activity in po dosed 129Sv6 mouse model assessed as peak effect measured at 15 mins by radiant heat tail flick assay; format: functional; conditions: 129Sv6, 0.25 h
Mus musculus [2] = assay: Antinociceptive activity in po dosed 129Sv6 mouse model assessed as time required for peak effect at ED50 by radiant heat tail flick assay; format: functional
Mus musculus [3] = assay: Antinociceptive activity in sc dosed 129Sv6 mouse model assessed as time required for peak effect at ED50 by radiant heat tail flick assay; format: functional
Mus musculus [4] = assay: Antinociceptive activity in po dosed C57BL/6J mouse model assessed as time required for peak effect at ED50 by radiant heat tail flick assay; format: functional
Mus musculus [5] = assay: Antinociceptive activity in sc dosed C57BL/6J mouse model assessed as time required for peak effect at ED50 by radiant heat tail flick assay; format: functional
[6] = Drug metabolism in 129Sv6 mouse plasma assessed as mitragynine pseudoindoxyl formation at 10 mg/kg, po measured after 15 mins by LC-MS/MS analysis; format: ADME, organism-based; conditions: in vivo, 0.25 h
[7] = Drug metabolism in C57BL/6J mouse brain assessed as mitragynine pseudoindoxyl formation at 30 mg/kg, po measured after 20 mins by LC-MS/MS analysis; format: ADME, organism-based; conditions: in vivo
[8] = Drug metabolism in 129Sv6 mouse brain assessed as mitragynine pseudoindoxyl formation at 10 mg/kg, po measured after 15 mins by LC-MS/MS analysis; format: ADME, organism-based; conditions: in vivo, 0.25 h
[9] = Drug concentration in C57BL/6J mouse brain at 30 mg/kg, po measured after 20 mins by LC-MS/MS analysis; format: ADME, organism-based; conditions: read-out: Ct
[10] = Drug concentration in C57BL/6J mouse brain at 30 mg/kg, sc measured after 20 mins by LC-MS/MS analysis; format: ADME, organism-based; conditions: read-out: Ct
[11] = Drug concentration in 129Sv6 mouse brain at 10 mg/kg, sc measured after 15 mins by LC-MS/MS analysis; format: ADME, organism-based; conditions: read-out: Ct
[12] = Stability in human liver microsomes assessed as half life at 1 uM incubated for 60 mins by LC-MS/MS analysis; format: ADME, Microsome; conditions: 1 h
[13] = Stability in C57BL/6J mouse liver microsomes assessed as half life at 1 uM incubated for 60 mins by LC-MS/MS analysis; format: ADME, Microsome; conditions: 1 h
Cytochrome P450 3A [14] = target: Cytochrome P450 3A (Homo sapiens, UniProt P08684+P20815+Q9HB55+P24462); assay: Metabolic stability in human liver microsomes assessed as CYP3A-mediated decomposition by measuring half life at 1 uM incubated for 60 mins in presence of ketoconazole by LC-MS/MS analysis; format: ADME, Microsome; conditions: 1 h
Cytochrome P450 3A [15] = target: T1, Cytochrome P450 3A (Mus musculus, UniProt O09158+Q64464+Q64481+Q9JMA7); assay: Metabolic stability in C57BL/6J mouse liver microsomes assessed as CYP3A-mediated decomposition by measuring half life at 1 uM incubated for 60 mins in presence of ketoconazole by LC-MS/MS analysis; format: ADME, Microsome; conditions: 1 h
Cytochrome P450 3A [16] = target: T1, Cytochrome P450 3A; assay: Metabolic stability in 129Sv6 mouse liver microsomes assessed as CYP3A-mediated decomposition by measuring half life at 1 uM incubated for 60 mins in presence of ketoconazole by LC-MS/MS analysis; format: ADME, Microsome; conditions: 1 h
[17] = Drug metabolism in 129Sv6 mouse liver microsomes assessed as mitragynine pseudoindoxyl formation at 1 uM incubated for 60 mins by LC-MS/MS analysis; format: ADME, Microsome; conditions: 1 h
[18] = Drug metabolism in human liver microsomes assessed as mitragynine pseudoindoxyl formation at 1 uM incubated for 60 mins in presence of ketoconazole by LC-MS/MS analysis; format: ADME, Microsome; conditions: 1 h
[19] = Drug metabolism in C57BL/6J mouse liver microsomes assessed as mitragynine pseudoindoxyl formation at 1 uM incubated for 60 mins in presence of ketoconazole by LC-MS/MS analysis; format: ADME, Microsome; conditions: 1 h
[20] = Drug metabolism in human liver microsomes assessed as mitragynine pseudoindoxyl formation at 1 uM incubated for 60 mins in presence of NADPH by LC-MS/MS analysis; format: ADME, Microsome; conditions: 1 h
[21] = Drug metabolism in human S9 fraction assessed as compound depletion at 1 uM incubated for 60 mins in presence of NADPH by LC-MS/MS analysis; format: ADME, subcellular; conditions: s9, 1 h
[22] = Drug metabolism in human S9 fraction assessed as mitragynine pseudoindoxyl formation at 1 uM incubated for 60 mins in presence of NADPH by LC-MS/MS analysis; format: ADME, subcellular; conditions: s9, 1 h
[23] = Drug metabolism in human S9 fraction assessed as 3-dehydromitragynine formation at 1 uM incubated for 60 mins in presence of NADPH by LC-MS/MS analysis; format: ADME, subcellular; conditions: s9, 1 h
[24] = Drug metabolism in human liver microsomes assessed as compound depletion at 1 uM incubated for 60 mins in absence of NADPH by LC-MS/MS analysis; format: ADME, Microsome; conditions: 1 h
[25] = Drug metabolism in human S9 fraction assessed as mitragynine pseudoindoxyl formation at 1 uM incubated for 60 mins in absence of NADPH by LC-MS/MS analysis; format: ADME, subcellular; conditions: s9, 1 h
[26] = Drug metabolism in 129Sv6 mouse brain assessed as 3-dehydromitragynine formation at ED80, po; format: ADME, tissue-based
[27] = Drug metabolism in 129Sv6 mouse plasma assessed as 3-dehydromitragynine formation at ED80, po; format: ADME, cell-free
[28] = Drug metabolism in human liver microsomes assessed as 3-dehydromitragynine formation at 1 uM incubated for 60 mins by LC-MS/MS analysis; format: ADME, Microsome; conditions: 1 h
[29] = Drug metabolism in C57BL/6J mouse liver microsomes assessed as 3-dehydromitragynine formation at 1 uM incubated for 60 mins by LC-MS/MS analysis; format: ADME, Microsome; conditions: 1 h
[30] = Drug metabolism in human liver microsomes assessed as 3-dehydromitragynine formation at 1 uM incubated for 60 mins in presence of ketoconazole by LC-MS/MS analysis; format: ADME, Microsome; conditions: 1 h
[31] = Drug metabolism in 129Sv6 mouse liver microsomes assessed as 3-dehydromitragynine formation at 1 uM incubated for 60 mins in presence of ketoconazole by LC-MS/MS analysis; format: ADME, Microsome; conditions: 1 h
[32] = Drug metabolism in C57BL/6J mouse liver microsomes assessed as 3-dehydromitragynine formation at 1 uM incubated for 60 mins in presence of ketoconazole by LC-MS/MS analysis; format: ADME, Microsome; conditions: 1 h
Mus musculus [33] = assay: Antinociceptive activity in DOR knock out C57BL/6J mouse at 45 mg/kg, po measured after 20 mins; format: functional, organism-based
Mus musculus [34] = assay: Antinociceptive activity in MOR knock out 129Sv6 mouse at 10 mg/kg, po measured after 15 mins; format: functional, organism-based
Mus musculus [35] = assay: Antinociceptive activity in DOR knock out 129Sv6 mouse at 10 mg/kg, po measured after 15 mins; format: functional, organism-based
[36] = Drug metabolism in C57BL/6J mouse brain assessed as mitragynine pseudoindoxyl formation at 30 mg/kg, po measured after 8 hrs by LC-MS/MS analysis; format: ADME, organism-based; conditions: in vivo
[37] = Drug metabolism in C57BL/6J mouse plasma assessed as mitragynine pseudoindoxyl formation at 30 mg/kg, po measured after 8 hrs by LC-MS/MS analysis; format: ADME, organism-based; conditions: in vivo
[38] = Drug concentration in C57BL/6J mouse brain at 30 mg/kg, po measured after 24 hrs by LC-MS/MS analysis; format: ADME, organism-based; conditions: in vivo, BLD = below limit of detection
[39] = Drug concentration in C57BL/6J mouse plasma at 30 mg/kg, po measured after 24 hrs by LC-MS/MS analysis; format: ADME, organism-based; conditions: in vivo, BLD = below limit of detection

Work on CC[C@@H]1CN2CCc3c([nH]c4cccc(OC)c34)[C@@H]2C[C@@H]1/C(=C\OC)C(=O)OC yielded an ED50 (Mus musculus [1]) of 4 mg/kg, a Time (Mus musculus [2]) of 15 min and a Time (Mus musculus [3]) of 15 min. It also gave a Time (Mus musculus [4]) of 15 min, a Time (Mus musculus [5]) of 15 min and a Drug metabolism [6] of 13 nM. It also gave a Drug metabolism [7] of 40 nM, a Drug metabolism [8] of 180 nM and a concentration at 20 min [9] of 6.63 µM. The concentration at 20 min [10] was 9.74 µM, the concentration at 0.25 h [11] was 30.1 µM and the t1/2 [12] was 7.5 min. It also gave a t1/2 [13] of 5.9 min, a t1/2 (Cytochrome P450 3A [14]) of 37.4 min and a t1/2 (Cytochrome P450 3A [15]) of 35.8 min. The t1/2 (Cytochrome P450 3A [16]) was 24.4 min, the Drug metabolism [17] was “Metabolite_Detected” and the Drug metabolism [18] was “Metabolite_Notdetected”. The Drug metabolism [19] was “Metabolite_Notdetected”, the Drug metabolism [20] was “Metabolite_Detected” and the Drug metabolism [21] was “Metabolite_Detected”. The Drug metabolism [22] was “Metabolite_Detected”, the Drug metabolism [23] was “Metabolite_Detected” and the Drug metabolism [24] was “Metabolite_Notdetected”. The Drug metabolism [25] was “Metabolite_Notdetected”, the Drug metabolism [26] was 0.035 µM and the Drug metabolism [27] was 0.028 µM. The Drug metabolism [28] was “Metabolite_Detected”, the Drug metabolism [29] was “Metabolite_Detected” and the Drug metabolism [30] was “Metabolite_Detected”. The Drug metabolism [31] was “Metabolite_Detected”, the Drug metabolism [32] was “Metabolite_Detected” and the Activity (Mus musculus [33]) was “Active”. For the same compound, the Activity (Mus musculus [34]) was “inactive”, the Activity (Mus musculus [35]) was “Active” and the Drug metabolism [36] was “Metabolite_Notdetected”. The Drug metabolism [37] was “Metabolite_Notdetected”, the Ct [38] was “Bld” and the Cp [39] was “Bld”.

Source: ChEMBL document CHEMBL5233277, “Oxidative Metabolism as a Modulator of Kratom's Biological Actions” (J Med Chem, 2021)
